US10272083B2, “Methods of treating chronic lymphocytic leukemia and small lymphocytic leukemia using a BTK inhibitor” (Acerta Pharma B.V., priority 2014, dated 2019)
“Also recorded” adds a separate entry of the source.

Assays:
[1] = system: platelet collagen receptor glycoprotein VI (GPVI); assay: GPVI (convulxin-induced) platelet aggregation; type: cell-based, human; details: for inhibition of GPVI platelet aggregation: FIG. 16 and FIG. 17
Protocol: GPVI platelet aggregation was measured for Formula (II) and ibrutinib. Blood was obtained from untreated humans, and platelets were purified from […] by centrifugation. Cells were resuspended to a final concentration of 350,000/μL in buffer containing 145 mmol/L NaCl, 10 mmol/L HEPES, 0.5 mmol/L Na2HPO4, 5 mmol/L KCl, 2 mmol/L MgCl2, 1 mmol/L CaCl2, and 0.1% glucose, at pH 7.4. Stock solutions of […] were prepared on the day of experimentation and added to platelet suspensions 5 minutes (37° C., 1200 rpm) before the induction of aggregation. Aggregation was assessed with a Chronolog Lumi-Aggregometer (model 540 VS; Chronolog, Havertown, Pa.) and permitted to proceed for 6 minutes after the addition of agonist. The results are reported as maximum percent change in light transmittance from baseline with platelet buffer used as a reference.
In FIG. 17, the results of CVX-induced (250 ng/mL) human platelet aggregation results before and 15 minutes after administration of the BTK inhibitors to 6 healthy individuals are shown.

CYP3A4 = CYP3A4 (Homo sapiens, UniProt P08684); assay: In vitro loss of parent drug as catalyzed by CYPs; type: in vitro ADME
[2] = In vitro metabolism in hepatocytes with 14C-labeled compound; type: in vitro ADME, mouse, rat, dog, rabbit, monkey, and human
[3] = system: BCR activation markers CD69 and CD86; assay: In vivo potency: IgM-stimulated BCR activation markers by flow cytometry; details: mice gavaged, 3 h post-dose, BCR stimulated with IgM
Protocol: Mice were gavaged at increasing drug concentration and sacrificed at one time point (3 h post-dose). BCR is stimulated with IgM and the expression of activation markers CD69 and CD86 are monitored by flow cytometry to determine EC50's.
CD86 and CD69 are cell surface proteins that are BCR activation markers. […] BCR was stimulated with IgM and the expression of activation marker CD69 and CD86 are monitored by flow cytometry and to determine EC50 values.

NK cells = assay: Antibody-dependent NK cell degranulation, CD107a flow cytometry; type: cell-based, human; details: rituximab-coated DHL-4 target cells
[4] = system: regulatory T cell (Treg) development; assay: CD4+ T cell skewing culture, Treg; type: cell-based; details: FIG. 25
Protocol: (§1) Enriched CD4^+ T cells are plated on 24-well culture dishes that have been precoated 2 hr with 250 μL anti-TCRP3 (0.5 μg/mL) plus anti-CD28 (5 μg/mL) at 37° C. in PBS. The cells are then supplemented with media containing BTK inhibitors along with the skewing cytokines as indicated in the following. The Th17 and Treg cultures are grown for 4 days before analysis. The cells are maintained for an additional 3 days with skewing cytokines (Th17; 20 ng/mL IL-6, 0.5 ng/mL TGF-β, […] Treg; 0.5 ng/mL TGF-β, 5 μg/mL IL-4, 5 μg/mL IFN-γ) and are supplemented with IL2 as a growth factor.

[5] = Preliminary evaluation of metabolism in plasma, bile and urine; type: in vivo; details: bile, urine of rats, dogs, monkeys
[6] = system: NK cells and monocytic MDSC subsets; assay: Flow cytometry of peripheral blood cell subsets in CLL patients; type: in vivo, human; details: patients with falling ALC counts, 28 days of dosing
Protocol: PBMCs were stained with monoclonal antibodies conjugated to fluorescent tags (flourochromes) to identify cell subsets via flow cytometry. Non-viable cells were excluded from the analysis using the dye 7-aminoactinomycin D (7-AAD). To produce the metric of percent change, the following steps were taken. First, each cell subset was defined by hierarchical flow cytometry gating. Then, the change in frequency (between day 1 and day 28) was calculated for each cell subset. MDSC subsets were measured as a % of all myeloid cells. T cell subsets were measured as a % of all CD3^+ cells, and NK cells were measured as a % of all live CD45^+ cells. […] A cycle is 28 days. A trend is observed wherein patients with decreasing ALC % had increasing MDSC (monocytic) %. This may include patients who had quickly resolving lymphocytosis and those with no initial lymphocytosis. […] This may include patients who had quickly resolving lymphocytosis and those having no initial lymphocytosis. The effects in FIG. 9 to FIG. 12 are observed in multiple cohorts, at doses including 100 mg BID, 200 mg QD, and 400 mg QD. In FIG. 13 and FIG. 14, the effects on NK cells and MDSC cells are compared to a number of other markers versus % change in ALC at C1D28 and C2D28. These other markers include CD4+ T cells, CD8+ T cells, CD4+/CD8+ T cell ratio, NK-T cells, PD-1+CD4+ T cells, and PD-1+CD8+ T cells. […]

[7] = GLP functional observation battery in rats; type: in vivo; details: doses through 300 mg/kg
Excerpt: (§2) Formula (II) was well tolerated in standard in vivo Good Laboratory Practices (GLP) studies of pharmacologic safety.

Th17 cells = assay: CD4+ T cell skewing culture, Th17; type: cell-based; details: FIG. 24
Protocol: as §1

[8] = system: human platelet-mediated thrombus formation; assay: In vivo human thrombus formation, laser injury, VWF HA1 mice model; details: platelets preincubated with BTK inhibitor (0.1, 0.5 or 1 μM)
[9] = Glutathione binding and depletion in vitro
[10] = Study of respiratory function in rats; type: in vivo; details: doses through 300 mg/kg
Excerpt: as §2

[11] = Cardiovascular function study in awake telemeterized beagle dogs; type: in vivo; details: male beagle dogs, single doses through 30 mg/kg
Excerpt: as §2

[12] = system: canine spontaneous B-cell lymphoma; assay: Study of canine spontaneous B-cell lymphoma; type: in vivo, dogs; details: 2.5 mg/kg once daily oral
Excerpt: Formula (II) is currently being evaluated in an ongoing study of canine spontaneous B-cell lymphoma. […] To date, partial remission (PR), per Veterinary Cooperative Oncology Group criteria for assessment of response in peripheral nodal lymphoma, has been observed in 2 of 6 dogs. D. M. Vali, et al., Vet. Comp. Oncol. 8, 28-37 (2010). […] L. A. Honigberg, et al., Proc. Nat. Acad. Sci. USA, 107, 13075-13080 (2010).

CYP enzymes = assay: Nonclinical CYP interaction studies; type: in vitro ADME
EGFR phosphorylation = assay: In vitro EGFR phosphorylation in A431 cells; type: cell-based; details: 10 μM, A431 human epidermoid cancer cell line
[13] = system: 80 known pharmacologic targets such as G-protein-coupled receptors, nuclear receptors, proteases, and ion channels; assay: Binding assays with 80 known pharmacologic targets; details: screened at 10 μM
[14] = system: canine spontaneous B-cell lymphoma; details: out of 8 dogs treated; Honigberg et al. 2010; cited from earlier work
[15] = within the tested dose range; cited from earlier work
Raji cells = assay: Rituximab ADCC 51Cr release, healthy donor NK cells vs Raji cells; type: cell-based, human; details: 1 μM, E:T 25:1

Sequence of CYP3A4 (P08684 whole entry): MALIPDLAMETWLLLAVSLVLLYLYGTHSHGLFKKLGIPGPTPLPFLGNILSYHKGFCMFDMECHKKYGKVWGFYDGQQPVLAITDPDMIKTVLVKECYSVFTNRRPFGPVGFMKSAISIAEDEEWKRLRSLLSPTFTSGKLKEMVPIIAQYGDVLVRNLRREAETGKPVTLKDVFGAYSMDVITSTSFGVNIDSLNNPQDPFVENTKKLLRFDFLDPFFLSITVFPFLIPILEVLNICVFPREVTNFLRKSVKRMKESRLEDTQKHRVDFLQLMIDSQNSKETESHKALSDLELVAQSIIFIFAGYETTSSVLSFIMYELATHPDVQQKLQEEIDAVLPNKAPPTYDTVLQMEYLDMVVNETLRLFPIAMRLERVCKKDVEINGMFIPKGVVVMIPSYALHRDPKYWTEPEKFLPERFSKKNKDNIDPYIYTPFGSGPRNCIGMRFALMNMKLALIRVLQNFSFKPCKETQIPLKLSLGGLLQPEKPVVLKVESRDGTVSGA

## CC#CC(=O)N1CCC[C@H]1c1nc(-c2ccc(C(=O)Nc3ccccn3)cc2)c2c(N)nccn12 [Formula (II), (S)-4-(8-amino-3-(1-(but-2-ynoyl)pyrrolidin-2-yl)imidazo[1,5-a]pyrazin-1-yl)-N-(pyridin-2-yl)benzamide]
[1]
  inhibition of GPVI platelet aggregation: does not
[1]; Homo sapiens, Platelet, FIG. 16
  IC50: 1150 nM
CYP3A4
  CYP responsible for metabolism: metabolized by CYP3A4
[2]; hepatocytes
  unique human metabolite: No unique human metabolite was identified
[2]; mouse, rat, dog, rabbit, monkey, human hepatocytes
  metabolites in hepatocytes: two mono-oxidized metabolites and a glutathione conjugate
[3]
  in vivo potency at inhibiting expression of activation markers CD69 and CD86: more potent at inhibiting expression of activation makers than ibrutinib
NK cells
  reduction of rituximab-stimulated NK cell degranulation: < 2%
relapsed/refractory CLL; All (N = 44)
  Grade of Diarrhea: 1
  Grade of Headache: ½
  Grade of Increased tendency to bruise: 1
  Grade of Petechiae: 1
  Treatment-related adverse event: Diarrhea: 4 (9) n (%)
  Treatment-related adverse event: Headache: 7 (16) n (%)
  Treatment-related adverse event: Increased tendency to bruise: 6 (14) n (%)
  Treatment-related adverse event: Petechiae: 3 (7) n (%)
relapsed/refractory CLL; Kaplan-Meier, Log-Rank p-value 0.0206
  progression-free survival (PFS) in comparison to ibrutinib: An improvement in survival and a reduction in risk
relapsed/refractory CLL; relapsed/refractory CLL
  MTD: not reached
  dose-limiting toxicities (DLTs): No DLTs were observed
  grade of AEs observed: only grade 1 AEs were observed
  lymphocytosis: A lack of lymphocytosis
  treatment-related serious adverse events (SAEs): No treatment-related serious adverse events (SAEs) were observed
relapsed/refractory CLL; to date
  progression in patients with 17p deletion: no 17p patients have progressed
[4]
  effect on Treg development: no adverse effects; also recorded: no effect
[5]
  metabolic processes: oxidation, glutathione binding, and hydrolysis
[6]
  frequency of NK cells and monocytic MDSC subsets in peripheral blood: increase in frequency in the peripheral blood
[7]
  neurobehavioral effects or body temperature: no adverse effects
Th17 cells
  effect on Th17 cells: no adverse effect
[8]
  effect on human platelet-mediated thrombus formation: no significant effect
[9]
  glutathione binding / depletion: binds to glutathione but does not deplete glutathione
[10]
  respiratory function: no treatment-related adverse effects
[11]
  body temperature, cardiovascular, or ECG (including QT interval) parameters: no meaningful changes
[12]
  drug-related adverse events: No drug-related adverse events
[12]; average 22 days, preliminary
  partial remission (PR): 2 of 6
CYP enzymes
  drug-drug interaction potential via CYP enzymes: very unlikely to cause clinical drug-drug interactions
EGFR phosphorylation
  inhibition of in vitro EGFR phosphorylation: no inhibition
[13]
  activity in binding screen of 80 targets: significant activity only against the A3 adenosine receptor

## C=CC(=O)Nc1cccc(Nc2nc(Nc3ccc(OCCOC)cc3)ncc2F)c1 [CC-292, N-(3-((5-fluoro-2-((4-(2-methoxyethoxy)phenyl)amino)pyrimidin-4-yl)amino)phenyl)acrylamide, reference compound]
[8]
  effect on human platelet-mediated thrombus formation: effect similar to ibrutinib

## C=CC(=O)N1CCC[C@@H](n2nc(-c3ccc(Oc4ccccc4)cc3)c3c(N)ncnc32)C1 [Ibrutinib, 1-[(3R)-3-[4-amino-3-(4-phenoxyphenyl)-1H-pyrazolo[3,4-d]pyrimidin-1-yl]piperidin-1-yl]prop-2-en-1-one, reference compound]
[1]
  inhibition of GPVI platelet aggregation: significantly inhibits GPVI platelet aggregation
[14]
  dogs with PR: 3 dogs
[15]
  maximum tolerated dose (MTD): No maximum tolerated dose (MTD) was apparent
Raji cells
  effect on rituximab-mediated ADCC against Raji cells: strongly inhibited
[4]
  effect on Treg development: increase in Treg development; also recorded: strongly increases Treg development
Th17 cells
  effect on Th17 cells: profound inhibition of Th17 cells; also recorded: strongly inhibits Th17 cells
